These results are taken from patent US20250195483A1, “SPIRO PIPERIDINE DERIVATIVES AS INHIBITORS OF APOL1 AND METHODS OF USING SAME” (Vertex Pharmaceuticals Incorporated, priority 2022, published 2025).

The target of this test is T1, APOL1 (Homo sapiens, UniProt O14791).
T1 sequence (O14791 1-398): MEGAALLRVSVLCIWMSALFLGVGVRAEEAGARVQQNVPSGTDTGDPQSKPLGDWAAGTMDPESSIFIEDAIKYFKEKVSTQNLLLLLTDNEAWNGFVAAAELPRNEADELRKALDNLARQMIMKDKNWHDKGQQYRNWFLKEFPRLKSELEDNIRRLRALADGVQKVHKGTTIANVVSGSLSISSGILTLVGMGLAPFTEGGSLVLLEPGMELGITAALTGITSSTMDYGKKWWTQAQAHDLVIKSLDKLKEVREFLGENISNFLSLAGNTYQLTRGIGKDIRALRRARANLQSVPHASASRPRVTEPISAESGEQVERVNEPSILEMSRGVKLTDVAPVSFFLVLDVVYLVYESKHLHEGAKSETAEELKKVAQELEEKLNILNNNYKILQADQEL
The test is described as follows: MultiTox-Fluor Multiplex Cytotoxicity Assay, tet-inducible APOL1 T-REx-HEK293 cells (G0, G1 or G2 clone not specified for Table 20). The test is classed as cell-based. The following applies: tet-induced, 24 hours with compound, ratio of dead to live cells, read-out: IP50 (i.e., IC50 for cell proliferation). As for the experimental part:
Human embryonic kidney (HEK293) cell lines containing a tet-inducible expression system (T-REx™; Invitrogen, Carlsbad, CA) and Adeno-associated virus site 1 pAAVS1-Puro-APOL1 G0 or pAAVS1-Puro-APOL1 G1 or pAAVS1-Puro-APOL1 G2 Clones G0 DC2.13, G1 DC3.25, and G2 DC4.44 were grown in a T-225 flask at ˜90% confluency in cell growth media (DMEM, 10% Tet-free FBS, 2 mM L-glutamine, 100 Units/mL penicillin-streptomycin, 5 μg/mL blasticidin S HCl, 1 μg/mL puromycin dihydrochloride). Cells were washed with DPBS and then trypsinized to dissociate from the flask. Media was used to quench the trypsin, cells were then pelleted at 200 g and resuspended in fresh cell assay media (DMEM, 2% Tet-free FBS, 2 mM L-glutamine, 100 Units/mL penicillin-streptomycin). Cells were counted and diluted to 1.17×10^6 cells/mL. 20 μL of cells (23,400/well) were dispensed in every well of a 384-well Poly-D-Lysine coated plate using the Multidrop dispenser. The plates were then incubated at room temperature for one hour.
Tetracycline is needed to induce APOL1 expression. 1 mg/mL tet stock in water was diluted to 250 ng/mL (5×) in cell assay media. 60 μL of cell assay media (no tet control) was dispensed in columns 1 and 24, and 60 μL of 5× tet in 384-PP-round bottom plate was dispensed in columns 2 to 23 with the Multidrop dispenser.
Assay ready plates from the Global Compound Archive were ordered using template 384_APOL1Cell_DR10n2_50 uM_v3. Compounds were dispensed at 200 nL in DMSO. The final top concentration was 10 μM with a 10 point 3-fold dilution in duplicate in the MultiTox assay.
20 μL was transferred from the 5× tet plate to the ARP and mixed, then 5 μL of 5× tet and the compounds were transferred to the cell plate and mixed using the Bravo. The cell plate was placed in the humidified 37° C. 5% CO2 incubator for 24 hours.
The MultiTox-Fluor Multiplex Cytotoxicity Assay was performed in accordance with the manufacturer's protocol. After cells were incubated with tet and compound for 24 hours, 25 μL of 1× MultiTox reagent was added to each well using the Multidrop dispenser; the plates were placed on a plate shaker (600 rpm) for 2 minutes, then centrifuged briefly and placed back in the 37° C. incubator for 30 minutes. The cell viability (excitation: 400 nm, emission: 486 nm) and cytotoxicity (excitation: 485 nm, emission: 535 nm) were read using the EnVision plate reader. A ratio of dead (cytotoxicity) to live (viability) cells was reported. Data was exported and analyzed in Genedata. Data was normalized using percent of control, no tet (100% viability), and 50 ng/mL tet treated (0% viability), and fit using Smart Fit settings in Genedata.

Consider `C[C@H]1CC2(CCN1Cc1cnn(CCS(C)(=O)=O)c1)CC(O)c1ccc(Cl)cc12` (single isomer, unassigned) [Compound 307, (2′S)-5-chloro-2′-methyl-1′-[[1-(2-methylsulfonylethyl)pyrazol-4-yl]methyl]spiro[indane-3,4′-piperidine]-1-ol], for which the IC50 was at most 50 nM.

In the case of `CC(=O)Nc1ccc(CN2CCC3(CC2)C(=O)Nc2ccc(Cl)cc23)cc1` [Compound 6], the IC50 lay in the range of 50 to 500 nM.

Consider `Nc1ncc(CN2CCC3(CC2)C(=O)Nc2ccc(Cl)cc23)s1` [Compound 3], for which the IC50 fell in the range of 50 to 500 nM.

With `NC(=O)c1ccc(CN2CCC3(CC2)OC(C(N)=O)c2ccc(Cl)cc23)cc1` (stereo not drawn) [Compound 225], the IC50 is at most 50 nM.

As to `Cc1ccc2c(c1)[C@]1(CCN(Cc3cnn(C)c3)[C@@H](C)C1)OCC2` [Compound 91], the IC50 was at most 50 nM.

`CCO/N=C(\C)c1ccc(CN2CCC3(CC2)C(=O)Nc2ccc(Cl)cc23)cn1` [Compound 12]: the IC50 was 50 to 500 nM.

Regarding `C[C@H]1C[C@@]2(CCN1Cc1cn(CC(=O)Nc3cn[nH]c3)nn1)OCCc1ccc(Cl)cc12` [Compound 186], the IC50 was at most 50 nM.

Consider `Cc1ccc2c(c1)C1(CCN(Cc3cnn(CCS(C)(=O)=O)c3)[C@@H](C)C1)CC2O` (stereo partly drawn) [Compound 308, (2′S)-2′,5-dimethyl-1′-[[1-(2-methylsulfonylethyl)pyrazol-4-yl]methyl]spiro[indane-3,4′-piperidine]-1-ol], for which the IC50 is at most 50 nM.

In the case of `CNC(=O)C1OC2(CCN(Cc3cnn(-c4ccccc4)c3C)CC2)c2cc(Cl)ccc21` (stereo not drawn) [Compound 299, 6-chloro-N-methyl-1′-((5-methyl-1-phenyl-1H-pyrazol-4-yl)methyl)-3H-spiro[isobenzofuran-1,4′-piperidine]-3-carboxamide], the IC50 is at least 500 nM.

Regarding `COC(=O)c1ccc(CN2CCC3(CC2)OC(C(N)=O)c2ccc(Cl)cc23)nc1` (stereo not drawn) [Compound 250], the IC50 is 50 to 500 nM.

On to `C[C@H]1C[C@@]2(CCN1Cc1cn(CCO)nn1)OCCc1ccc(Cl)cc12` [Compound 141, 2-[4-[[(1R,2′S)-7-chloro-2′-methyl-spiro[isochromane-1,4′-piperidine]-1′-yl]methyl]triazol-1-yl]ethanol], for which the IC50 was at most 50 nM.

For the compound `CNC(=O)C1OC2(CCN(Cc3cnn(-c4ccccc4)c3)CC2)c2cc(Cl)ccc21` (stereo not drawn) [Compound 195, 5-chloro-N-methyl-1′-[(1-phenylpyrazol-4-yl)methyl]spiro[1H-isobenzofuran-3,4′-piperidine]-1-carboxamide], the IC50 is at most 50 nM.

`C[C@H]1C[C@@]2(CCN1Cc1cnn(CC(C)(CO)CO)c1)OCCc1ccc(Cl)cc12` [Compound 115]: the IC50 is at most 50 nM.

Take `C[C@H]1C[C@@]2(CCN1Cc1cn(CC3(C(N)=O)CC3)nn1)OCCc1ccc(Cl)cc12` [Compound 188]: the IC50 was at most 50 nM.

For `Cc1cc(C(=O)N[C@H]2C[C@H](Cn3cc(CN4CCC5(CC4)C(=O)N(C)c4ccc(Cl)cc45)cn3)C2)on1` [Compound 70], the IC50 was at least 500 nM.

In the case of `NC(=O)C1OC2(CCN(Cc3cnn(C[C@@H](O)CO)c3)CC2)c2cc(Cl)ccc21` (stereo partly drawn) [Compound 283], the IC50 was in the range of 50 to 500 nM.

As for `CNC(=O)Cn1cc(CN2CCC3(CC2)C(=O)Nc2ccc(C)cc23)cn1` [Compound 28], the IC50 was at least 500 nM.

As to `COc1ccc2c(c1)C1(CCN(Cc3cnn(-c4ccccc4)c3)CC1)OC2C(N)=O` (stereo not drawn) [Compound 296, 6-methoxy-1′-((1-phenyl-1H-pyrazol-4-yl)methyl)-3H-spiro[isobenzofuran-1,4′-piperidine]-3-carboxamide], the IC50 is at least 500 nM.

Consider `Cc1nc(Cn2cc(CN3CC[C@]4(C[C@@H]3C)OCCc3ccc(Cl)cc34)nn2)sc1C(N)=O` [Compound 165], for which the IC50 is at most 50 nM.

Regarding `NC(=O)C1OC2(CCN(Cc3cnn(-c4ccccc4)c3)CC2)c2cc(Cl)ccc21` (single isomer, unassigned) [Compound 194, 5-chloro-1′-[(1-phenylpyrazol-4-yl)methyl]spiro[1H-isobenzofuran-3,4′-piperidine]-1-carboxamide], the IC50 was at most 50 nM.

`Cn1cc(CN2CCC3(CC2)C(=O)Nc2ccc(Cl)cc23)cn1` [Compound 13]: the IC50 was in the range of 50 to 500 nM.

With `CNC(=O)C1OC2(CCN(Cc3cnn(-c4ccccc4)c3)CC2)c2cc(OC)ccc21` (stereo not drawn) [Compound 297, 6-methoxy-N-methyl-1′-((1-phenyl-1H-pyrazol-4-yl)methyl)-3H-spiro[isobenzofuran-1,4′-piperidine]-3-carboxamide], the IC50 was at least 500 nM.

Consider `C[C@H]1C[C@@]2(CCN1Cc1cnn(C(F)F)c1)OCCc1ccc(Cl)cc12` [Compound 122], for which the IC50 is at most 50 nM.

As for `CNC(=O)C1OC2(CCN(Cc3cnn(-c4ccccc4)c3)[C@@H](C)C2)c2cc(Cl)ccc21` (single isomer, unassigned) [Compound 294, (2′S)-5-chloro-N,2′-dimethyl-1′-[(1-phenylpyrazol-4-yl)methyl]spiro[1H-isobenzofuran-3,4′-piperidine]-1-carboxamide], the IC50 is at least 500 nM.

Turning to `CN1C(=O)C2(CCN(Cc3cnn(CC(O)C(F)(F)F)c3)CC2)c2cc(Cl)ccc21` (stereo not drawn) [Compound 53], the IC50 lay in the range of 50 to 500 nM.

In the case of `NC(=O)C1OC2(CCN(Cc3cnn(-c4ccccc4)c3)CC2)c2cc(Cl)ccc21` (single isomer, unassigned) [Compound 193, 5-chloro-1′-[(1-phenylpyrazol-4-yl)methyl]spiro[1H-isobenzofuran-3,4′-piperidine]-1-carboxamide], the IC50 was 50 to 500 nM.

For the compound `Cc1c(CN2CCC3(CC2)OC(C(N)=O)c2ccc(Cl)cc23)cnn1C` (stereo not drawn) [Compound 275], the IC50 is at least 500 nM.

With `C[C@H]1C[C@@]2(CCN1Cc1cn(C)cn1)OCCc1ccc(Cl)cc12` [Compound 108], the IC50 was at least 500 nM.

With `C[C@H]1C[C@@]2(CCN1Cc1cn(Cc3nc(CO)cs3)nn1)OCCc1ccc(Cl)cc12` [Compound 164], the IC50 fell in the range of 50 to 500 nM.

As for `C[C@H]1C[C@@]2(CCN1Cc1cn(CCCn3ccc(=O)[nH]c3=O)nn1)OCCc1ccc(Cl)cc12` [Compound 179], the IC50 was at most 50 nM.

With `Cc1nc(CN2CCC3(CC2)OC(C(N)=O)c2ccc(Cl)cc23)c[nH]1` (stereo not drawn) [Compound 222], the IC50 is at least 500 nM.

Take `CS(=O)(=O)CCn1cc(CN2CCC3(CC2)C(=O)Nc2ccc(C(F)C(F)F)cc23)cn1` (stereo not drawn) [Compound 32]: the IC50 is at least 500 nM.

In the case of `CS(=O)(=O)CCn1cc(CN2CCC3(CC2)C(=O)Nc2ccc(C#N)cc23)cn1` [Compound 30], the IC50 was at least 500 nM.

In the case of `NC(=O)c1cccc(CN2CCC3(CC2)OC(C(N)=O)c2ccc(Cl)cc23)c1F` (stereo not drawn) [Compound 240], the IC50 is at least 500 nM.

On to `C[C@H]1C[C@@]2(CCN1Cc1cnn(C)c1)OCC(O)c1ccc(Cl)cc12` (stereo partly drawn) [Compound 131], for which the IC50 is at most 50 nM.

As for `Cc1noc2ncc(CN3CCC4(CC3)OC(C(N)=O)c3ccc(Cl)cc34)cc12` (stereo not drawn) [Compound 237], the IC50 fell in the range of 50 to 500 nM.

As to `Cc1cccc2c1C(O)CC21CCN(Cc2cnn(CCS(C)(=O)=O)c2)[C@@H](C)C1` (stereo partly drawn) [Compound 309, (2′S)-2′,4-dimethyl-1′-((1-(2-(methylsulfonyl)ethyl)-1H-pyrazol-4-yl)methyl)-2,3-dihydrospiro[indene-1,4′-piperidin]-3-ol], the IC50 is 50 to 500 nM.

`CN1C(=O)C2(CCN(Cc3cnn(CCS(C)(=O)=O)c3)CC2)c2cc(OC(F)(F)F)ccc21` [Compound 87]: the IC50 is at least 500 nM.

In the case of `Cc1ccc2c(c1)C1(CCN(Cc3cn(CCS(C)(=O)=O)nn3)[C@@H](C)C1)OC2(C)C` (single isomer, unassigned) [Compound 290, (2′S)-2′,3,3,6-tetramethyl-1′-((1-(2-(methylsulfonyl)ethyl)-1H-1,2,3-triazol-4-yl)methyl)-3H-spiro[isobenzofuran-1,4′-piperidine]], the IC50 is at least 500 nM.
